Patent EP2127643A1, “Oral pellet composition with time-delayed release” (Bayer Schering Pharma Aktiengesellschaft, priority 2008, dated 2009)
Like-named read-outs stand apart in the source and are kept apart here. Each block holds one compound with its values, some of them ahead of it.

What was measured:
[1] = human, cited from earlier work
[2] = target: CYP-2C9 (Homo sapiens, UniProt P11712); assay: CYP test: inhibition of cytochrome P450 isoenzymes by excipients; format: biochemical
[3] = target: CYP-2C19 (Homo sapiens, UniProt P33261); assay: as above; format: biochemical
Chain of CYP-2C19 (P33261 whole entry): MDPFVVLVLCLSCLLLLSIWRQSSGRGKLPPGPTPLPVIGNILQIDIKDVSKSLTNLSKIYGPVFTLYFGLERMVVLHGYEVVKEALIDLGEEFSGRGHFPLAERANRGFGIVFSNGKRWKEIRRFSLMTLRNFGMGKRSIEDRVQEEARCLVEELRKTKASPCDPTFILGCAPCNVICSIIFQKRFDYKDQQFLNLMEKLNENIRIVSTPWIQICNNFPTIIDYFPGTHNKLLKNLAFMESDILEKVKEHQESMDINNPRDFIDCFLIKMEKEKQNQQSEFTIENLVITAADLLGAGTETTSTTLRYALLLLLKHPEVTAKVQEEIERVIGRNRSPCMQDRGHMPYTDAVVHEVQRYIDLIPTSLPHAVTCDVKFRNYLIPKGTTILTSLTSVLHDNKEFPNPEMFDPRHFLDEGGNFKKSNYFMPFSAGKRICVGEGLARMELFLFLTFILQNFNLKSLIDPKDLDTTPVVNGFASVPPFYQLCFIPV

[4] = target: CYP-3A4 (Homo sapiens, UniProt P08684); assay: as above; format: biochemical
Chain of CYP-3A4 (P08684 whole entry): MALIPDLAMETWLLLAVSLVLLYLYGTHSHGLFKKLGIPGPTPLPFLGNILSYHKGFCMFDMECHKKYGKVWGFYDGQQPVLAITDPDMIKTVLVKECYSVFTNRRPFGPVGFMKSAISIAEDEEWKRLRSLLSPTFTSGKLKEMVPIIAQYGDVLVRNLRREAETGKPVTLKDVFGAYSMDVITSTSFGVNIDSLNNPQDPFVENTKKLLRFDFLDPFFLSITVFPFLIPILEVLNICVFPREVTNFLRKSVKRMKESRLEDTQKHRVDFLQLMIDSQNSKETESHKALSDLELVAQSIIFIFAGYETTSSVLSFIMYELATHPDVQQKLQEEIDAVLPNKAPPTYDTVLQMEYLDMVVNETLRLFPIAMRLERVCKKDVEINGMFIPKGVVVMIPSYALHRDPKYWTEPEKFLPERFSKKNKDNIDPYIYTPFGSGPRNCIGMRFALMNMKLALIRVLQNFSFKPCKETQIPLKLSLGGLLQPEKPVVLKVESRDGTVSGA

[5] = rats; paclitaxel oral 30 min after oral morin; cited from earlier work
[6] = human; oral paclitaxel with simultaneous cyclosporin (Pgp inhibitor); cited from earlier work
[7] = concentration of excipient at which 50 % of the isoenzyme is inhibited

Chain of CYP-2C9 (P11712 whole entry): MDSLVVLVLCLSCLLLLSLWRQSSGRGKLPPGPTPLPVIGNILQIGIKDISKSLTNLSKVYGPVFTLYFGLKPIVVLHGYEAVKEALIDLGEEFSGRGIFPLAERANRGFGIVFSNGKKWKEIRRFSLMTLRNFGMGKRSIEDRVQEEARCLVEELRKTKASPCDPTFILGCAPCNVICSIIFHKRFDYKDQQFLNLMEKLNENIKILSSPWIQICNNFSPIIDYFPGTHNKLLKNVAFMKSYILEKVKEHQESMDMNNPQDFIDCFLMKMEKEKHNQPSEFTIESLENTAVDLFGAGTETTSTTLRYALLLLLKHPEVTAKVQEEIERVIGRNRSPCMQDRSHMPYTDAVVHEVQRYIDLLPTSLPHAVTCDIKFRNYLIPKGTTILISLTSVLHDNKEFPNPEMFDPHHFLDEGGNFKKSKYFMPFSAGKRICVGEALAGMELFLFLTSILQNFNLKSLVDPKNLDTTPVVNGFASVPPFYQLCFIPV

Compound: C#C[C@]1(O)CC[C@H]2[C@@H]3CCc4cc(O)ccc4[C@H]3CC[C@@]21C [Ethinylestradiol]
Anteil des beobachteten First-Pass-Effekts durch direkte Konjugation (vor allem Sulfatierung in der Darmwand) ([1]; gut wall): 65%
humane absolute Bioverfügbarkeit ([1]; oral): ~45%

Compound: CCCCCCCC/C=C\CCCCCCCC(=O)OCC [Ethyloleat]
IC50 [2]: 0.628 mM
IC50 [3]: 1.05 mM
IC50 [4]: 0.377 mM

Compound: CC(=O)O[C@H]1C(=O)[C@@]2(C)[C@H]([C@H](OC(=O)c3ccccc3)[C@]3(O)C[C@H](OC(=O)[C@H](O)[C@@H](NC(=O)c4ccccc4)c4ccccc4)C(C)=C1C3(C)C)[C@]1(OC(C)=O)CO[C@@H]1C[C@@H]2O [Paclitaxel]
Erhöhung der AUC [5]: ≤ 70%
Bioverfügbarkeit erhöht um Faktor [6]: 9

Compound: CCOCCOCCO [Transcutol®P, Ethoxydiglycol]
IC50 ([2]; concentration of excipient at which 50 % of the isoenzyme is inhibited, read-out: IC50, µg/ml CYP-2C9 (converted)): 11.2 mM
IC50 ([3]; concentration of excipient at which 50 % of the isoenzyme is inhibited, read-out: IC50, µg/ml CYP-2C19 (converted)): 10.4 mM
IC50 ([4]; concentration of excipient at which 50 % of the isoenzyme is inhibited, read-out: IC50, µg/ml CYP-3A4 (converted)): 5.63 mM

IC50, µg/ml CYP-2C9 [2, 7]: 5,0 µg/ml
IC50, µg/ml CYP-2C19 [3, 7]: 6,9 µg/ml
IC50, µg/ml CYP-3A4 [4, 7]: 29 µg/mL
Compound: Glycerolmonocaprylat [Imwitor®308]
